# From patent US6756374B2, “Diaminothiazoles having antiproliferative activity” (Hoffmann-La Roche Inc., priority 2001, dated 2004)
# Assays:
# [1] = system: HCT116; test: Tetrazolium dye (MTT) proliferation assay; type: cell-based; conditions: Homo sapiens, HCT-116; HCT116 colorectal carcinoma cell line
# Method: The cell line used was HCT116, a colorectal carcinoma cell line obtained from the American Type Cell Culture Collection (ATCC;
# Rockville, Md.). The cells were grown in McCoy's 5A medium supplemented with 10% FCS and L-glutamine.
# Cells were plated at the appropriate seeding density to give logarithmic growth over the course of the assay in a 96-well tissue culture plate. Plates were incubated overnight at 37° C. in a humidified incubator with 5% CO2. The next day, test compounds were serially diluted to four times the final concentration in the appropriate medium containing 1.2% DMSO. One-fourth final volume of each dilution was added in duplicate to the plates containing cells. The same volume of 1.2% DMSO in medium was added to a row of “control wells” such that the final concentration of DMSO in each well was 0.3%. Wells to which no cells were added served as the “blank.” Wells to which no inhibitor was added served as “no inhibitor control.” The plates were) returned to the incubator, and at set time points (determined by their growth curves) plates were analyzed as described below.
# 3-(4,5-dimethylthiazole-2-yl)-2,5-diphenyl-2H-tetrazolium bromide (thiazolyl blue; MTT; Sigma) was added to each well to yield a final concentration of 1 mg/ml. Plates were returned to the incubator for 2.5-3 hours at 37° C. The MTT-containing medium was removed and the resulting formazan metabolite was solubilized in 100% ethanol with shaking for 15 minutes at room temperature. Absorbance readings were taken in a microtiter plate reader (Dynatech and Molecular Devices plate readers were used interchangeably) at a wavelength of 570 nm with a 650 nm reference. Percent inhibition (% INH) is calculated by subtracting the absorbance of the blank well from all wells, then subtracting the ratio of the average absorbance of each test duplicate (SAVE) by the average of the controls (CAVE) from 1.00. The final number is then multiplied by 100 (% INH=(1.00−SAVE/CAVE)×100).
# [2] = target: human cyclin D1-CDK4 (Homo sapiens, UniProt P11802); test: FlashPlate kinase assay, cyclin D1-CDK4; type: biochemical; conditions: Rb protein substrate, 1 μM ATP
# Method: (§1) To determine inhibition of Cdk4, Cdk2 and Cdk1 activity, kinase assays were conducted using FlashPlate™ assays (NEN™-Life Science Products). FlashPlate assays were performed using recombinant human cyclin B-CDK1, human cyclin E-CDK2 or human cyclin D1-CDK4 complexes. GST-cyclinE (GST-cycE), CDK2, GST-cyclinB (GST-cycB), CDK1, GST-CDK4 and cyclin D1 (cycD1) cDNA clones in baculovirus vectors were provided by Dr. W. Harper at the Baylor College of Medicine, Houston, Tex.
# (§2) The expression of the 62Kd protein was under the control of an IPTG inducible promoter in an M15 E. coli strain. Cells were lysed by sonication and purification was carried out by binding lysates at pH 8.0 to a Ni-chelated agarose column pretreated with 1 mM imidazole. The resin was then washed several times with incrementally decreasing pH buffers to pH 6.0, and eluted with 500 mM imidazole. Eluted protein was dialysed against 20 mM HEPES pH 7.5, 30% glycerol, 200 mM NaCl, and 1 mM DTT. Purified Rb fusion protein stocks were quantitated for protein concentration, aliquoted, and stored at −70° C.
# (§3) For all three kinase assays reported herein, 96-well FlashPlates were coated with Rb protein at 10 μg/ml, using 100 μl per well. Plates were incubated at 4° C. overnight or at room temperature for 3 hours on a shaker. To control for nonspecific phosphorylation, one row of wells was coated with 100 μl/well coating buffer (20 mM HEPES, 0.2 M NaCl). Plates were then washed twice with wash buffer (0.01% Tween 20 in phosphate-buffered saline). Compounds to be tested (“test compounds”) were added to the wells at 5×final concentration. Reactions were initiated by immediate addition of 40 μl reaction mix (25 mM HEPES, 20 mM MgCl2, 0.002% Tween 20, 2 mM DTT, 1 μM ATP, 4 nM ^33P-ATP) and a sufficient amount of enzyme to give counts that were at least 10-fold above background. Plates were incubated at room temperature on a shaker for 30 minutes. Plates were washed four times with the wash buffer, sealed, and counted on the TopCount scintillation counter (Packard Instrument Co., Downers Grove, Ill.]. The percent inhibition of Rb phosphorylation, which is a measure of the inhibition of CDK activity, was determined according to the following formula: [formula]
# (§4) where “test compound” refers to the average counts per minute of the test duplicates, “nonspecific” refers to the average counts per minute when no CyclinD/Cdk4, etc., was added, and “total” refers to the average counts per minute when no compound was added.
# [3] = target: human cyclin B-CDK1 (Homo sapiens, UniProt P06493); test: FlashPlate kinase assay, cyclin B-CDK1; type: biochemical; conditions: Rb protein substrate, 1 μM ATP
# Method: as §1, §2, §3, §4
# [4] = target: human cyclin E-CDK2 (Homo sapiens, UniProt P24941); test: FlashPlate kinase assay, cyclin E-CDK2; type: biochemical; conditions: Rb protein substrate, 1 μM ATP
# Method: as §1, §2, §3, §4
# Sequence of human cyclin D1-CDK4 (P11802 whole entry): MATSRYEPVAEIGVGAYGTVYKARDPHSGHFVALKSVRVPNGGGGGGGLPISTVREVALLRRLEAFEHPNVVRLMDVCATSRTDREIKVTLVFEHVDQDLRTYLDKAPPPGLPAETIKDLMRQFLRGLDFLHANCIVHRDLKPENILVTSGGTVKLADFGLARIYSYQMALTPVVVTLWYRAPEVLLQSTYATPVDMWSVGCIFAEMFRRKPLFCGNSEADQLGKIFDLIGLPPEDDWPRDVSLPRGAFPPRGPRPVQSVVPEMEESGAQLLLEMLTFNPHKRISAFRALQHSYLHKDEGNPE
# Sequence of human cyclin D1-CDK4 (P24385 whole entry partner): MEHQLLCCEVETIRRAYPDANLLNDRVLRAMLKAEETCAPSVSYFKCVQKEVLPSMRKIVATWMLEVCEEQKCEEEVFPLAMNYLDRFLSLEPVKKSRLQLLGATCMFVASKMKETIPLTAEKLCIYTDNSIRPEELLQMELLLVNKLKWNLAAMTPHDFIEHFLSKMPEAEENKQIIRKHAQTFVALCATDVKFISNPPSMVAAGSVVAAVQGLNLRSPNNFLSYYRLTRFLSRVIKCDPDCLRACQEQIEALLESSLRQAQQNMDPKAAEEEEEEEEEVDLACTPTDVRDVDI
# Sequence of human cyclin B-CDK1 (P06493 whole entry): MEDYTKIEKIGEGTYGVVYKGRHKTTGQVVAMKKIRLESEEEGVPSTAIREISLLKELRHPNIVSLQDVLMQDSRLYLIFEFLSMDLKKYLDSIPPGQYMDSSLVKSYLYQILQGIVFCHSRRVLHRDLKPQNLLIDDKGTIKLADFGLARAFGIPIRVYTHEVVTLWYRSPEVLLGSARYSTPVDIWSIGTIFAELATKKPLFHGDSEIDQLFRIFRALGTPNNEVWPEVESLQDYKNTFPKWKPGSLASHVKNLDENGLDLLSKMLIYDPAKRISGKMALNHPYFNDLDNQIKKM
# Sequence of human cyclin B-CDK1 (P14635 whole entry partner): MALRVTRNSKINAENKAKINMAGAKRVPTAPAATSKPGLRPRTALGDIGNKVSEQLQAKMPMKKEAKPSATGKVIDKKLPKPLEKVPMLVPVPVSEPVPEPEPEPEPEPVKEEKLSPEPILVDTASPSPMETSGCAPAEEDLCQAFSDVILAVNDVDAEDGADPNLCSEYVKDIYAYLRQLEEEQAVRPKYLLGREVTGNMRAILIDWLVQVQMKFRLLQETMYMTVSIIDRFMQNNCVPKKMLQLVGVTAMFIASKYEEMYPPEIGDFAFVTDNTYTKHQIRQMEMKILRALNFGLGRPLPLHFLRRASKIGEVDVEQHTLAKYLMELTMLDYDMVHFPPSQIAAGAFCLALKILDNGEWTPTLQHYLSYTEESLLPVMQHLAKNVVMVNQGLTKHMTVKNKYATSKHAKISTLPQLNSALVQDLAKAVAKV
SMILES,IC50 [1] [µM],IC50 [2] [µM],IC50 [3] [µM],IC50 [4] [µM]
"CN1CCN(c2ccc(Nc3nc(N)c(C(=O)c4ccc(N5CCCC(CO)C5)c([N+](=O)[O-])c4)s3)cc2)CC1 (racemic) [Example 61, [4-Amino-2-[[4-(4-methyl-1-piperazinyl)phenyl]amino]-5-thiazolyl][3-nitro-4-[3-(hydroxymethyl)-1-piperidinyl]phenyl]methanone]",3.9,0.012,3.5,2.3
"CC1CCCN1c1ccc(C(=O)c2sc(Nc3ccc(N4CCN(C)CC4)cc3)nc2N)cc1[N+](=O)[O-] (racemic) [Example 62, [4-Amino-2-[[4-(4-methyl-1-piperazinyl)phenyl]amino]-5-thiazolyl][3-nitro-4-(2-methyl-1-pyrrolidinyl)phenyl]methanone]",4.4,0.044,10,5.9
"CN1CCN(c2ccc(Nc3nc(N)c(C(=O)c4ccc(N5CCCC5)cc4)s3)cc2)CC1 [Example 26, [4-Amino-2-[[4-(4-methyl-1-piperazinyl)phenyl]amino]-5-thiazolyl][4-(1-pyrrolidinyl)phenyl]methanone]",5.6,0.059,9,6.2
"CN1CCN(c2ccc(Nc3nc(N)c(C(=O)c4ccc(N5CCCCC5)cc4)s3)cc2)CC1 [Example 27, [4-Amino-2-[[4-(4-methyl-1-piperazinyl)phenyl]amino]-5-thiazolyl][4-(1-piperidinyl)phenyl]methanone]",9.1,0.004,20.1,9.4
"CN1CCN(c2ccc(Nc3nc(N)c(C(=O)c4ccc(N5CCOCC5)cc4)s3)cc2)CC1 [Example 28, [4-Amino-2-[[4-(4-methyl-1-piperazinyl)phenyl]amino]-5-thiazolyl][4-(4-morpholinyl)phenyl]methanone]",9.5,0.017,9.2,22.2
"COc1ccc(C(=O)c2sc(Nc3ccc(N4CCN(C)CC4)cc3)nc2N)cc1 [Example 32, [4-Amino-2-[[4-(4-methyl-1-piperazinyl)phenyl]amino]-5-thiazolyl](4-methoxyphenyl)methanone]",5.6,0.08,3.9,9.6
"CCN(CC)c1ccc(C(=O)c2sc(Nc3ccc(N4CCN(C)CC4)cc3)nc2N)cc1 [Example 33, [4-Amino-2-[[4-(4-methyl-1-piperazinyl)phenyl]amino]-5-thiazolyl][4-(diethylamino)phenyl]methanone]",9.2,0.008,6.1,6.5
"CN1CCN(c2ccc(Nc3nc(N)c(C(=O)c4ccc5oc6ccccc6c5c4)s3)cc2)CC1 [Example 34, [4-Amino-2-[[4-(4-methyl-1-piperazinyl)phenyl]amino]-5-thiazolyl](2-dibenzofuranyl)methanone]",3.8,0.049,11.7,6.1
"COc1cc(OC)cc(C(=O)c2sc(Nc3ccc(N4CCN(C)CC4)c(F)c3)nc2N)c1 [Example 39, [4-Amino-2-[[3-fluoro-4-(4-methyl-1-piperazinyl)phenyl]amino]-5-thiazolyl](3,5-dimethoxyphenyl)methanone]",3.6,0.021,2.8,7.9
"COc1cccc(C(=O)c2sc(Nc3ccc(N4CCN(C)CC4)c(F)c3)nc2N)c1 [Example 40, [4-Amino-2-[[3-fluoro-4-(4-methyl-1-piperazinyl)phenyl]amino]-5-thiazolyl](3-methoxyphenyl)methanone]",3,0.014,1.3,3.1

# Other lines, results leading:
IC50 [1] [µM],IC50 [2] [µM],IC50 [3] [µM],IC50 [4] [µM],SMILES
3.9,0.02,2.5,4.3,"CN1CCN(c2ccc(Nc3nc(N)c(C(=O)c4ccc5c(c4)OCCO5)s3)cc2)CC1 [Example 24, [4-Amino-2-[[4-(4-methyl-1-piperazinyl)phenyl]amino]-5-thiazolyl](2,3-dihydro-1,4-benzodioxin-6-yl)methanone]"
3.5,0.018,0.5,3.5,"CN1CCN(c2ccc(Nc3nc(N)c(C(=O)c4ccc5c(c4)OCO5)s3)cc2)CC1 [Example 25, [4-Amino-2-[[4-(4-methyl-1-piperazinyl)phenyl]amino]-5-thiazolyl](1,3-benzodioxol-5-yl)methanone]"
9.5,0.103,15.9,9.6,"CN1CCN(c2ccc(Nc3nc(N)c(C(=O)c4ccc5c(c4)OCCCO5)s3)cc2)CC1 [Example 29, [4-Amino-2-[[4-(4-methyl-1-piperazinyl)phenyl]amino]-5-thiazolyl](3,4-dihydro-2H-1,5-benzodioxepin-7-yl)methanone]"
3.6,0.053,2.4,2.3,"CN1CCN(c2ccc(Nc3nc(N)c(C(=O)c4ccc(O)cc4)s3)cc2)CC1 [Example 30, [4-Amino-2-[[4-(4-methyl-1-piperazinyl)phenyl]amino]-5-thiazolyl]-(4-hydroxyphenyl)methanone]"
4.1,0.026,0.5,2.3,"CN1CCN(c2ccc(Nc3nc(N)c(C(=O)c4cccc([N+](=O)[O-])c4)s3)cc2)CC1 [Example 31, [4-Amino-2-[[4-(4-methyl-1-piperazinyl)phenyl]amino]-5-thiazolyl](3-nitrophenyl)methanone]"
1.8,0.008,1.1,1.8,"COc1ccc(C(=O)c2sc(Nc3ccc(N4CCN(C)CC4)cc3)nc2N)cc1F [Example 35, [4-Amino-2-[[4-(4-methyl-1-piperazinyl)phenyl]amino]-5-thiazolyl](3-fluoro-4-methoxyphenyl)methanone]"
2.8,0.025,2.1,5.4,"COc1cccc(C(=O)c2sc(Nc3ccc(N4CCN(C)CC4)cc3)nc2N)c1 [Example 36, [4-Amino-2-[[4-(4-methyl-1-piperazinyl)phenyl]amino]-5-thiazolyl](3-methoxyphenyl)methanone]"
6.6,0.073,10,6.3,"CN1CCN(c2ccc(Nc3nc(N)c(C(=O)c4ccc(Cl)c(Cl)c4)s3)cc2)CC1 [Example 37, [4-Amino-2-[[4-(4-methyl-1-piperazinyl)phenyl]amino]-5-thiazolyl](3,4-dichlorophenyl)methanone]"
1.9,0.006,2,2.6,"CN1CCN(c2ccc(Nc3nc(N)c(C(=O)c4ccc5c(c4)OCO5)s3)cc2F)CC1 [Example 38, [4-Amino-2-[[3-fluoro-4-(4-methyl-1-piperazinyl)phenyl]amino]-5-thiazolyl](1,3-benzodioxol-5-yl)methanone]"
